Measured values as given in patent US20260021107A1, “STIMULATOR OF INTERFERON GENES AGONISTS” (INIMMUNE CORP., priority 2022, published 2026).

Assays:
THF-ISRE cells = experiment: THF luciferase activity, primary (initial) screen in THF-ISRE cells; format: cell-based, human; conditions: inducible luciferase reporter signalling upon IRF3 activation, compounds 50 μM to 0.391 μM, 18 hours, luminescence
Method: (§1) STING molecules were screened to determine human STING pathway specificity. THF-ISRE, THF-ISRE STING knock-out (KO), and THF-ISRE TRIF/MAVS KO cell lines contain an inducible luciferase reporter construct that will signal upon IRF3 activation. THF-ISRE STING KO cell line only has the TRIF/MAVS pathway to activate IRF3. THF-ISRE TRIF/MAVS KO cell line uses only the STING pathway for IRF3 activation. Luciferase activity was determined by measuring luminescence.
(§2) The three cell lines were maintained in T-75 flasks with DMEM/High Glucose (Cytiva™, Logan, UT), Pen/Strep/Glutamine (Hyclone™, Logan, UT), and 10% heat inactivated FBS (Hyclone™, Logan, UT).
(§3) For primary screening, THF-ISRE cells were plated at a density of 15,000 cells/well in opaque flat bottom 96-well tissue culture plates. Cells incubated for 36 hours and treated with DMSO (Sigma™, St. Louis, MO) formulated compounds. Before treatment, cell media was changed to 2% FBS in DMEM with antibiotics. Compounds were serially diluted 2-fold, starting at 50 μM and ending at 0.391 μM. Luciferase activity was measured after 18 hours by addition of Steady-Glo Luciferase Assay System (Promega™, Madison, WI) at a 1:1 ratio and luminescence read by plate reader.

human STING pathway = experiment: THF luciferase activity, secondary screen in THF-ISRE TRIF/MAVS KO cells (STING only); format: cell-based; conditions: only the STING pathway for IRF3 activation
Method: as §1, §2, §3
The secondary screening used the same procedure as above with THF-ISRE STING KO and THF-ISRE TRIF/MAVS KO cells. If the compound was human STING specific, only THF-ISRE TRIF/MAVS KO cells would have luciferase activity.

| SMILES | luciferase activity (initial screen) (THF-ISRE cells) | luciferase activity in TRIF/MAVS KO cells (STING pathway use) (human STING pathway) |
| --- | --- | --- |
| COc1cccc(F)c1CN1C(=O)CSc2cc(C(=O)NCc3c(F)cc(F)cc3F)ccc21 [INI-3067] | positive luciferase activity | use the STING pathway for luciferase activity |
| O=C(NCc1c(F)cc(F)cc1F)c1ccc2c(c1)SCC(=O)N2Cc1c(O)cccc1F [INI-3069] | positive luciferase activity | use the STING pathway for luciferase activity |
| CC1Sc2cc(C(=O)NCc3ccco3)ccc2N(Cc2c(O)cccc2F)C1=O (centres unmarked) [INI-3070] | positive luciferase activity | use the STING pathway for luciferase activity |
| CC1Sc2cc(C(=O)NCc3c(F)cc(F)cc3F)ccc2N(Cc2c(O)cccc2F)C1=O (centres unmarked) [INI-3071] | positive luciferase activity | use the STING pathway for luciferase activity |
